“And” between values parts separate entries of the source, which are not always exact repeats. Equal entries are not always repeated. Where two headings read alike, the source gives them in different places.
Assays:
[1] = in vitro; settings: Chinese hamster
Description: (§1) A Chinese hamster […] fibroblast cell line (V79MZ) and a clone expressing human CYP1B1 (V79MZh1B1), were grown at 37° C., 5%CO2 and at 90% saturated humidity, in DMEM (Dulbecco's modified eagles medium) high glucose type supplemented with 1 mM sodium pyruvate, 10% fetal calf serum, 100 U penicillin/ml and 100 μg streptomycin/ml. Neither cell line expresses endogenous P450s, although cytochrome P450 reductase is present in both cell lines. The parental and CYP1B1 expressing cell lines double in cell number every 10-12 h and were sub-cultured at 1:50 ratio (i.e. 1 ml of cells to 50 ml of fresh media) every 4-5 days. The cells were not allowed to reach confluency at any time, to ensure optimal cell physiological conditions and maximal cytochrome P450 activity. Cells were routinely used at 3rd-5th passage for all experiments.
(§2) Docetaxel was obtained from Rhone-Poulenc Rorer. Optimal growth conditions were established. The same conditions were used for both cell lines; V79MZ and V79MZh1B1 cells at 60-80% confluence were harvested and seeded at 0.5-1×10^3 cells per well in 96 well culture plates. […] Cells treated with solvent alone acted as a negative control.
(§3) Enzyme inhibition studies were undertaken by co-administration of docetaxel and the known P450 CYP1 inhibitor ANF (Sigma) at different concentration in the media. Stock solutions of ANF (1 mM, 10 mM and 100 mM) were dissolved in DMSO and added to the media to give final concentrations of 1 μM, 10 μM and 100 μM ANF (in each case the final concentration of DMSO in media was 0.1%). Following 24 h exposure to each drug (with or without inhibitor), the media were removed and replaced with fresh media without drug. In this study, cells were then grown for three doubling times (36 h) with the media changed at 24 hr. […] Media were removed from the wells and replaced with 200 μl of fresh media, followed by addition of 50 μl of MTT solution (50 mg/ml of MTT (Sigma) in sterile PBS), the cells were incubated at 37° C. in a humidified atmosphere with 5%CO2/95% air for 4 h. The MTT containing media was then removed and 200 μl of DMSO plus 25 μl of glycine buffer (0.1 M glycine/0.1 M NaCl pH 10.5) added to the cells in each well. This procedure overcomes any effect that cell density or culture medium may have on the absorption spectrum. The absorbance of the formazan produced by the viable cells was measured once for each well at 540 nm on a Labsystems EMS microplate reader (Life Sciences International). To calculate the cell viability cells treated with solvent alone were assigned a value of 100% absorbance indicating zero cytotoxicity, i.e. 100% viability. The cytotoxic profile of each drug was evaluated in triplicate 96 well plates. Each plate included several controls (media only, cells only and cells treated with solvent alone). The 96 well plate format allowed eight concentrations of the appropriate drug per plate, with eight replicates (i.e. eight separate wells) per drug concentration, i.e. 8 measurements of absorbance for each concentration of drug per plate. There were three triplicate plates per experiment resulting in a total of 24 measurements of absorbance per concentration of drug.

[2] = test system: V79MZh1B1 cells; assay: in vitro; settings: for cytotoxicity in CYP1B1 expressing V79MZh1B1 cells: 24 h exposure, ANF at 1, 10 and 100 μM
Description: as §1, §2, §3

[3] = test system: V79MZ cells; assay: cells; settings: for IC50: read-out: IC50 V79MZ (control vector)
Description: as §1, §2, §3

[4] = fold less cytotoxic than paclitaxel; cited from earlier work
[5] = target: T1, CYP1B1 (Homo sapiens, UniProt Q16678); assay: Inhibition of EROD activity mediated by cDNA expressed cytochrome 1B1; settings: for Ki: Ki Values, Dixon re-plots of EROD activity, mean; for inhibition at 100 μM: human, pH 7.4
T1 sequence (Q16678 1-543): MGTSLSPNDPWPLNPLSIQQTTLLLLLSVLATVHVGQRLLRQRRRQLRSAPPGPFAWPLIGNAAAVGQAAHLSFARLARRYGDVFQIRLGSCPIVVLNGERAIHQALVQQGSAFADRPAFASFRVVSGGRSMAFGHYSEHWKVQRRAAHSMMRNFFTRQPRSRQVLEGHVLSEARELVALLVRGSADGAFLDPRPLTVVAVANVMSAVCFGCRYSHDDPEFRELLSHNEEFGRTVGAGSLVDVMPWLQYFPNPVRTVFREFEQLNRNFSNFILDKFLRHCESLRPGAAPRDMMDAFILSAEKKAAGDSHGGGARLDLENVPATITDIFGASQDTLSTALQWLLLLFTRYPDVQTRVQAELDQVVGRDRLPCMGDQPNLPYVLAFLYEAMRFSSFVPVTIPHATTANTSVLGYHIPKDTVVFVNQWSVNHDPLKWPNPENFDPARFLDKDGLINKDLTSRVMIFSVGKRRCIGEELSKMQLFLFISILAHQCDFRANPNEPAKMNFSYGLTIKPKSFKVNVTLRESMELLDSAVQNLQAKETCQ
Excerpt: Recent immunohistochemical analysis of P4501B1 protein in a variety of solid tumours identified tumour-specific enzyme expression (Murray et al, 1998). This provides a mechanism of resistance to currently used anticancer agents, as well as, an approach for targeted prodrug therapy. 7-ethoxyresorufin deethylase activity (EROD) was used to define interactions with cytochrome 1B1 (CYP1B1). 7-Ethoxyresorufin is a known substrate for P4501B1. […] For this purpose, inhibition constants (Ki) have been calculated using in vitro kinetics from CYP1B1-mediated EROD activity. EROD activity and assay has been described previously by various authors (Lubet et al., 1985, Arch. Biochem. Biophys. 238: pp 43-48; Gentest Corporation, 6 Henshaw St., Woburn, Mass. 01801 USA, data sheet given with CYP1B1, catalogue number P220). 7-Ethoxyresorufin is enzymatically deethylated to a product called resorufin. The appearance of resorufin was monitored by a fluorescence detector set at 550 nm and 582 nm (excitation and emission wavelengths). […] Incubations contained: phosphate buffer at pH 7.4, 7-ethoxyresorufin, CYP1B1 Supersomes from Gentest Co (catalogue number P220) and nicotine adenine dinucleotide phosphate (NADP) as cofactor.
The metabolism of anti-cancer drugs by CYP1B1 was studied using an inhibition of EROD assay. […] Ki values were determined by the Dixon's replots: see Table 2.

[6] = target: T2, CYP1A1 (Homo sapiens, UniProt P04798); assay: Flutamide 2-hydroxylation and inhibition, CYP1A1 compared with CYP1B1; format: biochemical; settings: 2-hydroxylation of flutamide; times higher than CYP1B1
T2 sequence (P04798 1-512): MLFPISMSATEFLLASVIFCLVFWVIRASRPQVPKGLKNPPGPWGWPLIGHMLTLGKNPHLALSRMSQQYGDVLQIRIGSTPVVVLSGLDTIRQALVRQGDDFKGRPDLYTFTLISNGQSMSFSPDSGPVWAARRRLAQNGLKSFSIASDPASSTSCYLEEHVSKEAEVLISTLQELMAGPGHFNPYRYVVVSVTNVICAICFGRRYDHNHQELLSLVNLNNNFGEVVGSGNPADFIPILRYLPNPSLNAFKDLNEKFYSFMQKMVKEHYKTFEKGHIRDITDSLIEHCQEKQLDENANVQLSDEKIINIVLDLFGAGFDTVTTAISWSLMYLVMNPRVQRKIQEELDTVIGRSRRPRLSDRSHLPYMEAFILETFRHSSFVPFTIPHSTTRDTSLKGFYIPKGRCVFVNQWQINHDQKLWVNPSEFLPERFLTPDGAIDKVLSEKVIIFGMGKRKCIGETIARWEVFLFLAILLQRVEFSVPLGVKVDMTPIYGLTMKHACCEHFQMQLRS

[7] = test system: CYP1B1, CYP1A1, and CYP1A2
[8] = target: T1, CYP1B1; assay: Biotransformation studies with CYP1B1; settings: metabolites produced by CYP1B1 incubation but not control incubations
[9] = test system: CYP1B1, CYP1A1, CYP1A2; assay: in vitro; settings: human
[10] = test system: CYP1B1 in kidney tumour samples; assay: Kidney tumour assay, EROD metabolism with and without inhibitor; format: biochemical
Description: The effect of a CYP1B1 inhibitor was confirmed in an assay using kidney tumour samples. A buffer and NADP regenerating system was allowed to equilibrate at 37° C. and EROD (5 μM final concentration) was then added. This was followed by the addition of either P450 supersomes (control) or the appropriate tumour sample (1 mg). Supersomes were incubated for 15 minutes and tumour samples for 40 minutes.

[11] = Cricetulus griseus, V79MZ, 24 h
[12] = 24 h drug exposure, MTT, concentration at which 50% of cells are viable

O=c1[nH]cc(F)c(=O)[nH]1 [5-Fluorouracil]
IC50 at 24 h [1]: 80 µM | difference in cytotoxicity between CYP1B1 expressing and non-expressing cells [2]: no significant difference | IC50 [3, 11]: 70 µM

CC(=O)O[C@H]1C(=O)[C@@]2(C)[C@H]([C@H](OC(=O)c3ccccc3)[C@]3(O)C[C@H](OC(=O)[C@H](O)[C@@H](NC(=O)c4ccccc4)c4ccccc4)C(C)=C1C3(C)C)[C@]1(OC(C)=O)CO[C@@H]1[C@@H](O)[C@@H]2O [6-hydroxytaxol]
cytotoxicity relative to parent compound paclitaxel [4]: 30 fold

N.N.O=C([O-])C1(C(=O)[O-])CCC1.[Pt+2] [Carboplatin]
difference in cytotoxicity between CYP1B1 expressing and non-expressing cells ([2]; V79MZh1B1 compared with V79MZ, MTT): no significant difference | IC50 ([2]; read-out: IC50 V79MZhB1, 24 h drug exposure, MTT, CYP1B1 expressing cells): 100 µM | IC50 [3, 12]: 80 µM

N.N.[Cl][Pt][Cl] [Cisplatin]
IC50 [3, 12]: 4.4 µM

O=P1(N(CCCl)CCCl)NCCCO1 (stereo not drawn) [Cyclophosphamide]
cytotoxicity in CYP1B1 expressing V79MZh1B1 cells ([2]; MTT): No cytotoxicity | inhibition of CYP1B1 activity, initial screening, in words ([5]; initial screening, 1 μM ethoxyresorufin, 100 μM agent): did not inhibit CYP1B1 activity | cytotoxicity in parental V79MZ cells ([3]; 24 h exposure, MTT, ANF at 1, 10 and 100 μM): No cytotoxicity

COc1cccc2c1C(=O)c1c(O)c3c(c(O)c1C2=O)C[C@@](O)(C(C)=O)C[C@@H]3O[C@H]1C[C@H](N)[C@H](O)[C@H](C)O1 [Daunomycin]
Ki [5]: 2.1 µM and 2.12 µM | inhibition at 100 μM [5]: 53 to 99%

CC(=O)O[C@@]12CO[C@@H]1C[C@H](O)[C@@]1(C)C(=O)[C@H](O)C3=C(C)[C@@H](OC(=O)[C@H](O)[C@@H](NC(=O)OC(C)(C)C)c4ccccc4)C[C@@](O)([C@@H](OC(=O)c4ccccc4)[C@H]21)C3(C)C [Docetaxel]
IC50 at 24 h [1]: 0.1 µM | difference in cytotoxicity between CYP1B1 expressing and non-expressing cells [2]: at least four-fold | Inhibition Type [5]: competitive | Ki [5]: 28 µM | inhibition at 100 μM [5]: 53 to 99% | IC50 [3, 11]: 0.022 µM

COc1cccc2c1C(=O)c1c(O)c3c(c(O)c1C2=O)C[C@@](O)(C(=O)CO)C[C@@H]3O[C@H]1C[C@H](N)[C@H](O)[C@H](C)O1 [Doxorubicin]
IC50 at 24 h [1]: 0.09 µM | difference in cytotoxicity between CYP1B1 expressing and non-expressing cells [2]: no significant difference | Ki [5]: 2.6 µM and 2.58 µM | inhibition at 100 μM [5]: 53 to 99% | IC50 [3, 11]: 0.08 µM

C[C@]12CC[C@@H]3c4ccc(O)cc4CC[C@H]3[C@@H]1CC[C@@H]2O [Estradiol]
Inhibition Type [5]: competitive

CC(C)C(=O)Nc1ccc([N+](=O)[O-])c(C(F)(F)F)c1 [Flutamide]
Km for CYP1A1 relative to CYP1B1 [6]: 5 times | inhibition type for CYP1B1, CYP1A1, and CYP1A2 activities [7]: competitive | Inhibition Type [5]: competitive | Ki [5]: 1 µM and 0.99 µM | inhibition at 100 μM [5]: 53 to 99% | biotransformation by CYP1B1 [8]: biotransformed by CYP1B1 | Ki [9]: 1 to 10.3 µM

CC(=O)N1CCN(c2ccc(OCC3COC(Cn4ccnc4)(c4ccc(Cl)cc4Cl)O3)cc2)CC1 (stereo not drawn) [Ketoconazole]
Inhibition Type [5]: non-competitive | Ki [5]: 0.3 µM and 0.27 µM

CC(=O)O[C@H]1C(=O)[C@@]2(C)[C@H]([C@H](OC(=O)c3ccccc3)[C@]3(O)C[C@H](OC(=O)[C@H](O)[C@@H](NC(=O)c4ccccc4)c4ccccc4)C(C)=C1C3(C)C)[C@]1(OC(C)=O)CO[C@@H]1C[C@@H]2O [Paclitaxel]
difference in cytotoxicity between CYP1B1 expressing and non-expressing cells [2]: no significant difference | Ki [5]: 7.85 µM | inhibition at 100 μM [5]: 53 to 99% | biotransformation by CYP1B1 [8]: biotransformed by CYP1B1 | IC50 [3, 11]: 0.035 µM

CC/C(=C(\c1ccccc1)c1ccc(OCCN(C)C)cc1)c1ccccc1 [Tamoxifen]
Ki [5]: 5 µM and 5.02 µM

C[C@]12CC[C@H]3[C@@H](CCC4=CC(=O)CC[C@@]43C)[C@@H]1CC[C@@H]2O [Testosterone]
Inhibition Type [5]: competitive

O=c1cc(-c2ccccc2)oc2c1ccc1ccccc12 [α-naphthoflavone]
CYP1B1 activity in metabolising EROD ([10]; kidney tumour Sample 1, plus 10 nM ANF (252 without)): 145 fmol/min/mg protein | CYP1B1 activity in metabolising EROD ([10]; kidney tumour Sample 2, plus 10 nM ANF (993 without)): 470 fmol/min/mg protein | CYP1B1 activity in metabolising EROD ([10]; kidney tumour Sample 3, plus 10 nM ANF (880 without)): 570 fmol/min/mg protein | cytotoxicity in CYP1B1 expressing V79MZh1B1 cells ([2]; MTT): Neither cell line (parental or CYP1B1 expressing) showed cytotoxicity

— US20030162727A1, “Use of cyp1b1inhibitors for treating cancer” (priority 2000, published 2003)
